pIC50, pKi: −log10 of the molar value.
Assays:
[1] = biological target: T1, Replicase polyprotein 1ab (Severe acute respiratory syndrome coronavirus 2, UniProt P0DTD1); assay: Inhibition of recombinant SARS-CoV-2 main protease using Dabcyl-KTSAVLQSGFRKM{Glu(Edans)} as substrate preincubated for 10 mins followed by substrate addition and measured at 60 secs interval for 30 mins by fluorogenic assay
[2] = biological target: Replicase polyprotein 1ab (Severe acute respiratory syndrome coronavirus 2) (UniProt P0DTD1); assay: Inhibition of recombinant SARS-CoV-2 main protease at 1 uM using Dabcyl-KTSAVLQSGFRKM{Glu(Edans)} as substrate preincubated for 10 mins followed by substrate addition and measured at 60 secs interval for 30 mins by fluorogenic assay relative to control; conditions: time 40.0 min
16HBE14o- = assay: Cytotoxicity against human 16HBE14o- cells assessed as reduction in cell viability at 100 uM measured after 24 hrs by MTT assay; assay type: toxicity, cell-based
[3] = biological target: T1, Replicase polyprotein 1ab; assay: Competitive inhibition of recombinant SARS-CoV-2 main protease using varying levels of Dabcyl-KTSAVLQSGFRKM{Glu(Edans)} as substrate by Lineweaver-Burk plot analysis

## Cc1nc(C(=O)N2CCOCC2)c(C(=O)Nc2ccc(Cl)c(Cl)c2)[nH]1
[1]
  pIC50: 4.64
[2]
  inhibition: 33%

## Cc1nc(C(=O)N2CCOCC2)c(C(=O)Nc2cc(Cl)c(Cl)cc2Cl)[nH]1
16HBE14o-
  Activity: Non-toxic
[1]
  pIC50: 4.88
[2]
  inhibition: 39%

## Cc1nc(C(=O)N2CCOCC2)c(C(=O)Nc2cc(Cl)ccc2Cl)[nH]1
16HBE14o-
  Activity: Non-toxic
[1]
  pIC50: 5.07
[2]
  inhibition: 38%

## O=C(Nc1ccc(Cl)c(Cl)c1)c1[nH]cnc1C(=O)N1CCOCC1
16HBE14o-
  Activity: Non-toxic
[1]
  pIC50: 4.35
[2]
  inhibition: 33%

## O=C(Nc1ccccc1)c1[nH]cnc1C(=O)N1CCOCC1
[2]
  inhibition: 15%

## O=C(Nc1cc(Cl)c(Cl)cc1Cl)c1[nH]cnc1C(=O)N1CCOCC1
[2]
  inhibition: 16%

## Cc1nc(C(=O)N2CCOCC2)c(C(=O)Nc2ccc(Cl)cc2)[nH]1
16HBE14o-
  Activity: Non-toxic
[1]
  pIC50: 5.32
[3]
  pKi: 4.82
[2]
  inhibition: 38%

## O=C(Nc1ccc(Cl)cc1)c1[nH]cnc1C(=O)N1CCOCC1
[2]
  inhibition: 3%

## O=C(Nc1cc(Cl)ccc1Cl)c1[nH]cnc1C(=O)N1CCOCC1
[2]
  inhibition: 18%

## Cc1cccc(C)c1OCC(=O)N[C@@H](Cc1ccccc1)[C@@H](O)C[C@H](Cc1ccccc1)NC(=O)[C@H](C(C)C)N1CCCNC1=O
[2]
  inhibition: 33%

## Cc1nc(C(=O)N2CCOCC2)c(C(=O)Nc2ccccc2)[nH]1
16HBE14o-
  Activity: Non-toxic
[2]
  inhibition: 24%

## CC(C)c1nc(CN(C)C(=O)N[C@H](C(=O)N[C@@H](Cc2ccccc2)C[C@H](O)[C@H](Cc2ccccc2)NC(=O)OCc2cncs2)C(C)C)cs1
[2]
  inhibition: 24%

## O=c1c2ccccc2[se]n1-c1ccccc1
[2]
  inhibition: 100%
